These results are taken from patent US20250228954A1, “Designing Antisense Oligonucleotide Delivery Peptides by Interpretable Machine Learning” (Sarepta Therapeutics, Inc., priority 2020, published 2025).

A short description of data set [1]: Serum kidney injury markers in EGFP-654 mice. It counts as in vivo, mouse. The note with it: after seven days. As for the experimental part: After 3-days of acclimation, mice were randomized into groups to receive a single i.v. tail vein injection of either saline or PMO-P7 at the indicated doses; 5, 10 and 30 mg/kg. Seven days after the injection, the mice were euthanized for serum and tissue sample collection. Quadriceps, diaphragm, heart were rapidly dissected, snap-frozen in liquid nitrogen and stored at −80° C. until analysis.
Serum from all groups were collected 7-days post-injection and tested for kidney injury markers using a Vet Axcel Clinical Chemistry System (Alfa Wassermann Diagnostic Technologies, LLC). Specifically, serum BUN, creatinine, and cystatin C levels were measured using ACE® Creatinine Reagent (Alfa Wassermann, Cat #SA1012), ACER Blood Urea Nitrogen Reagent (Alfa Wassermann, Cat #SA2024) and Diazyme Cystatin C immunoassay (Diazyme Laboratories, Cat #DX133C—K), […], per manufacturer's recommendation (See, FIGS. 24A-C).

Data set [2] in a line: Chromogenic LAL endotoxin assay. The conditions noted are these: lot used for animal studies, acetate salt, 0.5 mg in 1 mL PBS. On the procedure: The amount of endotoxin in PMO-P7 was measured. A chromogenic LAL (Limulus Amebocyte Lysate) assay for the detection and quantification of bacterial endotoxins was used. LAL is an extract of blood cells (amoebocytes) from the Atlantic horseshoe crab. This assay is based on the reaction of LAL with bacterial endotoxin lipopolysaccharide (LPS), which is a membrane component of gram-negative bacteria. In this method the LAL reagent is mixed with a chromogenic reagent (a peptide connected to p-nitroaniline, a yellow colorant) to produce a synthetic chromogenic substrate. The sample was added to this chromogenic substrate prior incubation. The presence of endotoxins in the sample produces a series of enzymatic reactions in the LAL reagent resulting in the breaking of the peptide bonds releasing p-nitroaniline molecules and therefore producing a yellow color. The concentration of endotoxin is quantitated by measuring the absorbance at 405-410 nm. Using the lot of PMO-P7 for animal studies, PMO-P7 solution was prepared using 0.5 mg of PMO-P^7 as acetate salt dissolved in 1 mL of PBS (1X). […] The reader mixed the sample with the LAL (Limulus Amebocyte Lysate) reagent. […] After mixing, the optical density of the wells was measured and analyzed against an internal archived standard curve. The reading was 0.0471 EU/mg (EU: endotoxin units). […]

In another data set the test system is EGFP-654 mice. Briefly: EGFP protein level in tissues of EGFP-654 mice after single i.v. injection. Details: unit not given here. It counts as in vivo, mouse. The note with it: 7 days. An excerpt: The mice used in the study contain a similar transgene as the HeLa654 cells from Example 4. This mouse model ubiquitously expresses EGFP-654 transgene throughout the body under chicken β-actin promoter. A mutated nucleotide 654 at intron 2 of human β-globin gene is contained in the EGFP-654 sequence which interrupts EGFP-654 coding sequence and prevents proper translation of EGFP protein. […] In this study, 6- to 8-week-old male EGFP-654 mice bred at Charles River Laboratory were used. These mice were group housed with ad libitum access to food and water.
[…] Seven days after the injection, the mice were euthanized for serum and tissue sample collection. Quadriceps, diaphragm, heart were rapidly dissected, snap-frozen in liquid nitrogen and stored at −80° C. until analysis.
20-25 mg of mouse tissue was homogenized in RIPA buffer (Thermo Fisher, Cat #89900) with protease inhibitor cocktail (Roche, 04693124001) using a Fast Prep 24-5G instrument (MP Biomedical). Homogenates were centrifuged at 12,000 g for 10 min at 4° C. The resultant supernatant lysates were quantified by Pierce BCA Protein Assay Kit (Thermo Fisher, Cat #23225) and saved for EGFP expression measurement. Specifically, 80 μg of lysates were aliquoted in each well in a black-wall clear-bottom 96-well microplate (Corning). EGFP fluorescent intensity of each sample was measured in duplicates using a SpectraMAx i3x microplate reader (Molecular devices) by default setting. The average EGFP fluorescent intensity of each sample was then plotted against a standard curve constructed by recombinant EGFP protein (Origen, Cat #TP790050) to quantify EGFP protein level per μg protein lysate (See FIGS. 24D-F).

The next data set relates to HeLa 654 cells. Briefly: HeLa-654 eGFP assay (corrective splicing / exon skipping by PMO IVS2-654). It counts as cell-based, human. On the procedure: With the 36 constructs synthesized, the ability to modulate PMO activity using the modified HeLa cell assay was tested. The HeLa-654 cells were stably transfected to express a nonfluorescent eGFP protein. The eGFP gene is interrupted by a mutant intron from the human β-globin gene (IVS2-654). The insertion alters pre-mRNA splicing to cause retention of a fragment in the mature mRNA that results in a nonfluorescent protein. PMO IVS2-654 base-pairs with the B-globin insertion, modifies mRNA splicing, and thereby leads to expression of fluorescent eGFP.
For treatment, the crude reaction mixture was diluted to 5 μM in media. The concentration of the modular construct was calculated based on the original concentration of the module 1-2 conjugate mixed in the reaction. Using media containing 10% fetal bovine serum (FBS), the cells were treated with each construct for 22 hours, after which the cellular fluorescence was measured by flow cytometry.
From the lists of hundreds of predicted peptide sequences, twenty candidates were selected that varied in length, charge, and predicted activity to synthesize and test. Just as with the PMO-peptide library, the PMO-Mach constructs were first tested for PMO delivery in the HeLa 654 assay at 5 μM in complete media for 22 hours and analyzed by flow cytometry (FIG. 14). Experiments were conducted using three technical triplicates and two or three biological replicates.
HeLa 654 cells were maintained in MEM supplemented with 10% (v/v) fetal bovine serum (FBS) and 1% (v/v) penicillin-streptomycin at 37° C. and 5% CO2. Eighteen hours prior to treatment, the cells were plated at a density of 5,000 cells per well in a 96-well plate in MEM supplemented with 10% FBS and 1% penicillin-streptomycin. The day of the experiment, the 384 well plate containing the crude reaction mixtures in DMSO was diluted to 100 μM by the addition of 16.8 μL of PBS to the 3.2 μL reaction mixture. Then, each construct was diluted to 5 μM in MEM supplemented with 10% FBS and 1% penicillin-streptomycin. Cells were incubated with each conjugate at a concentration of 5 μM for 22 hours at 37° C. and 5% CO2. Next, the treatment media was aspirated the cells were incubated with Trypsin-EDTA 0.25% for 15 min at 37° C. and 5% CO2, washed 1× with PBS, and resuspended in PBS with 2% FBS and 2 μg/mL propidium iodide. Flow cytometry analysis was carried out on a BD LSRII flow cytometer. Gates were applied to the data to ensure that cells that were highly positive for propidium iodide or had forward/side scatter readings that were sufficiently different from the main cell population were excluded. Each sample was capped at 5,000 gated events.
Analysis was conducted using Graphpad Prism 7. For each sample, the mean fluorescence intensity and the number of gated cells was measured (FIGS. 8 and 9) and the intensity multiplied by the cell number was calculated (FIG. 7).

Each structure is given as a SMILES string.

Turning to `Cc1cn([C@H]2CN(P(=O)(OC[C@@H]3CN(P(=O)(OC[C@@H]4CN(P(=O)(OC[C@@H]5CN(P(=O)(OC[C@@H]6CN(P(=O)(OC[C@@H]7CN(P(=O)(OC[C@@H]8CN(P(=O)(OC[C@@H]9CN(P(=O)(OC[C@@H]%10CN(C(=O)CCCCC(=O)N%11Cc%12ccccc%12-c%12nnn(CCCCC(=O)N[C@@H](CCCCN)C(=O)N[C@@H](CCCCN)C(=O)N[C@@H](CCCCN)C(=O)N[C@@H](CCCCN)C(=O)N[C@@H](CCCCN)C(=O)N[C@@H](CCC(N)=O)C(=O)NCCC(=O)N[C@@H](CCCCN)C(=O)N[C@@H](CCCCN)C(=O)N[C@@H](CCCCN)C(=O)N[C@@H](Cc%13c[nH]cn%13)C(=O)N[C@@H](CCCNC(=N)N)C(=O)N[C@@H](Cc%13c[nH]c%14ccccc%13%14)C(=O)N%13CCC[C@H]%13C(=O)N[C@@H](CCCCN)C(=O)NCCCCCC(=O)NCCCCCC(=O)N[C@@H](CS)C(N)=O)c%12-c%12ccccc%12%11)C[C@H](n%11cnc%12c(=O)[nH]c(N)nc%12%11)O%10)N(C)C)C[C@H](n%10cnc%11c(N)ncnc%11%10)O9)N(C)C)C[C@H](n9ccc(N)nc9=O)O8)N(C)C)C[C@H](n8ccc(N)nc8=O)O7)N(C)C)C[C@H](n7ccc(N)nc7=O)O6)N(C)C)C[C@H](n6cnc7c(N)ncnc76)O5)N(C)C)C[C@H](n5cnc6c(N)ncnc65)O4)N(C)C)C[C@H](n4cc(C)c(=O)[nH]c4=O)O3)N(C)C)C[C@@H](COP(=O)(N(C)C)N3C[C@@H](COP(=O)(N(C)C)N4C[C@@H](COP(=O)(N(C)C)N5C[C@@H](COP(=O)(N(C)C)N6C[C@@H](COP(=O)(N(C)C)N7C[C@@H](COP(=O)(N(C)C)N8C[C@@H](COP(=O)(N(C)C)N9C[C@@H](COP(=O)(N(C)C)N%10C[C@@H](COP(=O)(N(C)C)N%11C[C@@H](COP(=O)(N(C)C)N%12CCN(C(=O)OCCOCCOCCO)CC%12)O[C@@H](n%12cnc%13c(=O)[nH]c(N)nc%13%12)C%11)O[C@@H](n%11ccc(N)nc%11=O)C%10)O[C@@H](n%10cc(C)c(=O)[nH]c%10=O)C9)O[C@@H](n9cnc%10c(N)ncnc%109)C8)O[C@@H](n8cc(C)c(=O)[nH]c8=O)C7)O[C@@H](n7cc(C)c(=O)[nH]c7=O)C6)O[C@@H](n6cnc7c(N)ncnc76)C5)O[C@@H](n5ccc(N)nc5=O)C4)O[C@@H](n4ccc(N)nc4=O)C3)O2)c(=O)[nH]c1=O` (some centres unmarked) [P7], in data set [1], the “BUN (blood urea nitrogen) levels” value is reported as “no significant changes”, the creatinine levels result is “no significant changes” and the “cystatin C levels” value is given as “no significant changes”. In data set [2], the endotoxin came to 0.0471 EU/mg. Besides, in the data set with EGFP-654 mice (30 mg/kg), the “GFP protein in the Diaphragm” value was 1100, the “GFP protein in the Heart” value stood at 2000 and the “GFP protein in the Quadriceps” value is reported as 1300. In the data set on EGFP-654 mice (60 mg/kg), the “GFP protein in the Diaphragm” value was determined as 2500, the “GFP protein in the Heart” value is 2200 and the “GFP protein in the Quadriceps” value was 4000. Moreover, the “fold increase in activity with respect to unconjugated PMO (eGFP assay)” value with HeLa 654 cells (5 μM) turned out to be 14 fold. Also, in the data set on HeLa 654 cells (5 μM, 22 h), the “PMO delivery / activity, result in words” value is on record as “superior activity”. The “fold increase at maximal effective concentration with respect to unconjugated PMO” value in the data set on HeLa 654 cells (dose-response between 0.1 and 100 μM) was 45 fold. In the data set with HeLa 654 cells (eGFP fluorescence of PMO-peptide conjugate relative to unconjugated PMO, 5 μM, 22 h), the “FOLD OVER PMO” value turned out to be 17.7.
